Patent publication US20250255929A1, “METHODS FOR REDUCING RISKS ASSOCIATED WITH HEART FAILURE AND FACTORS ASSOCIATED THEREWITH” (Stealth BioTherapeutics Inc., priority 2012, published 2025)
Where “and” joins values, the source holds several entries; their conditions need not be identical. Identical values can stand only once. Square brackets hold non-standard residues; d marks the D form. Ends that are not written are not given here. Dmt = Cc1cc(O)cc(C)c1C[C@H](N)C(=O)O

What was measured:
Assay type in all cases: in vivo
[1] = test system: reactive oxygen species (ROS); test: Plasma ROS (luminol chemiluminescence) in dog model of heart failure; conditions: for plasma ROS levels (FIG. 2), in words: HF dogs
Protocol: (§1) Heart failure was induced as described in Example 1. […] Half the dogs were treated with the peptide; the other half were treated with drug vehicle and served as controls. Peptide treatment was started upon induction of heart failure (HF), defined as left ventricular ejection fraction of approximately 30%. The daily dose of the peptide was 0.5 mg/kg/day administered intravenously. Blood samples were drawn on EDTA anticoagulant and were centrifuged at 2,500 RPM and the plasma extracted, aliquoted in 1 ml volumes into crystat tubes and stored at −70° C. until assayed. Once the follow-up was completed in all dogs, the plasma samples were thawed to room temperature and ROS was assayed. To assess ROS levels in the plasma, luminol (5-amino-2,3 dihydro-1,4 phtalazindione) was added to the samples. ROS levels were then assessed by chemiluminescence activity.

[2] = test system: NT-pro BNP; test: Plasma NT-pro BNP (double antibody sandwich ELISA) in dog model of heart failure; conditions: for plasma NT-pro BNP levels (FIG. 5), in words: HF dogs
Protocol: Heart failure was induced in dogs via multiple sequential intracoronary microembolizations as described in Sabbah, et al., Am J Physiol. (1991) 260:H1379-84, herein incorporated by reference in its entirety and summarized in Example 1.
as §1, with “NT-pro BNP” for “ROS”, “assayed.” for “assayed. To assess ROS levels in the plasma, luminol (5-amino-2,3 dihydro-1,4 phtalazindione) was added to the samples. ROS levels were then assessed by chemiluminescence activity.”
Nt-pro BNP (pg/ml) was determined in EDTA-plasma on the principle of the double antibody sandwich Enzyme-linked immunosorbent assay (ELISA). The assay was performed based upon the instructions came along with the assay kit (NT-pro BNP, Kamiya Biomedical Company, Cat #KT-23770). Using standard curves with the help of Software (MasterPlex-2010), the concentration of each biomarker was determined.

[3] = test system: mitochondrial ATP-sensitive potassium channel (mK ATP); test: mK ATP activation in LV mitochondria (thallium-sensitive fluorophore assay), dog model of heart failure; conditions: LV mitochondria of HF dogs after three months, 0.5 mg/kg/day, n=5; control 1372±112, p<0.05
Protocol: (§2) Heart failure was induced in dogs via multiple sequential intracoronary microembolizations as described in Sabbah, et al., Am J Physiol. (1991) 260:H1379-84, herein incorporated by reference in its entirety.
Heart failure was induced as described in Example 1. […] Half the dogs were treated with the peptide (n=5); the other half were treated with drug vehicle and served as controls (n=5). Peptide treatment was started upon induction of heart failure (HF), defined as left ventricular ejection fraction of approximately 30%. The daily dose of the peptide was 0.5 mg/kg/day administered intravenously for three months. Subcutaneous daily injections of saline were administered to the controls. Left ventricular tissue was harvested at the end of the three months of treatment. Mitochondria were isolated from the tissue. MK ATP activation was measured using the thallium-sensitive fluorophore assay kit and quantified in relative fluorescence units (RFU) per mg protein. Mitochondrial ATP to ADP ratio was measured using the bioluminescent ApoSENSOR™ assay kit (Enzo Life Sciences, Farmingdale, NY).

[4] = test system: TNF-alpha; test: Plasma TNF-alpha (double antibody sandwich ELISA) in dog model of heart failure; conditions: for plasma TNF-alpha levels (FIG. 4), in words: HF dogs
Protocol: The methods of Example 1 was used induce heart failure, administer peptide or vehicle, and to collect plasma samples for analysis. Fourteen dogs were used in this example. Half the dogs were treated with the peptide; the other half were treated with drug vehicle and served as controls. Peptide treatment was started in both groups upon induction of heart failure (HF), defined as left ventricular ejection fraction of approximately 30%.
TNF-alpha was quantified in EDTA-plasma using a double antibody sandwich ELISA. Briefly, TNF-alpha (Canine TNFα Duo Sett, Cat #DY1507) was purchased from R&D Systems. The assay was performed based on instructions provided by the supplier with minor modifications. The amount of EDTA-plasma incubated with antibody plate was 150 μl and incubation time was 18 hours at 4° C. Using standard curves and software, the concentration of TNFα was expressed as pg/ml.

[5] = test system: ALCAT1; test: ALCAT1 mRNA in LV tissue (real-time PCR), dog model of heart failure; conditions: LV tissue of HF dogs, 3 months, 0.5 mg/kg once daily s.c., n=6; untreated HF increased 3.56-fold vs normal; normalized to GAPDH
Protocol: as §2
(§3) Twelve dogs were subject to coronary microembolization-induced heart failure (LV ejection fraction ˜30%) as described in Example 1. […] RNA was prepared from LV tissue of all 12 dogs at the end of the treatment phase and from the LV of 6 normal (NL) dogs for comparison. mRNA levels of Taz1, MLCL AT1 and ALCAT1 were determined by real-time PCR. Changes in mRNA expression were expressed as fold changes using the CT Method with normalization to […] (GAPDH) as internal control.

[6] = test system: MLCL AT1; test: MLCL AT1 mRNA in LV tissue (real-time PCR), dog model of heart failure; conditions: LV tissue of HF dogs, 3 months, 0.5 mg/kg once daily s.c., n=6; untreated HF increased 2.60-fold vs normal; normalized to GAPDH
Protocol: as §2, §3

[7] = plasma, individual HF dogs, 6 weeks after initiating therapy, 0.5 mg/kg/day
[8] = plasma, individual HF dogs, 12 weeks after initiating therapy, 0.5 mg/kg/day
[9] = plasma, peptide group, individual dogs, baseline (before HF and treatment)
[10] = plasma, peptide group, individual dogs, heart failure prior to initiating therapy

Substance: D-Arg-2′,6′-Dmt-Lys-Phe-NH2 ([dR][Dmt]KF-NH2) [aromatic-cationic peptide]
- plasma ROS levels (FIG. 2), in words ([1]; treatment for 12 weeks): near normal levels
- plasma ROS levels (FIG. 2), in words ([1]; treatment for six weeks): reduced ROS levels
- Reactive oxygen species concentration, 6 Wk [1, 7]: 18.4 RLU×10^5/ml and 16.6 RLU×10^5/ml and 15.1 RLU×10^5/ml and 23.3 RLU×10^5/ml
- Reactive oxygen species concentration, 12 Wk [1, 8]: 12.4 RLU×10^5/ml (2×) and 8.3 RLU×10^5/ml and 9.0 RLU×10^5/ml and 10.5 RLU×10^5/ml
- Reactive oxygen species concentration, 12 Wk, Mean ([1]; plasma, mean of 5 HF dogs, 12 weeks after initiating therapy, 0.5 mg/kg/day): 10.5 RLU×10^5/ml
- Reactive oxygen species concentration, 6 Wk, Mean ([1]; plasma, mean of HF dogs, 6 weeks after initiating therapy, 0.5 mg/kg/day): 18.4 RLU×10^5/ml
- Reactive oxygen species concentration, BL, Mean ([1]; plasma, peptide group mean (5 dogs), baseline (before HF and treatment)): 5.3 RLU×10^5/ml
- Reactive oxygen species concentration, PRE, Mean ([1]; plasma, peptide group mean, heart failure prior to initiating therapy): 20.7 RLU×10^5/ml
- Reactive oxygen species concentration, BL [1, 9]: 5.5 RLU×10^5/ml and 3.9 RLU×10^5/ml and 6.8 RLU×10^5/ml and 5.7 RLU×10^5/ml and 4.7 RLU×10^5/ml
- Reactive oxygen species concentration, PRE [1, 10]: 23.6 RLU×10^5/ml and 18.5 RLU×10^5/ml and 14.6 RLU×10^5/ml and 26.0 RLU×10^5/ml
- plasma NT-pro BNP levels (FIG. 5), in words ([2]; treatment for 12 weeks): normal or near normal levels
- plasma NT-pro BNP levels (FIG. 5), in words ([2]; treatment for six weeks): reduced NT-pro BNP levels
- NT-pro BNP, 6Wk, AVG ([2]; plasma, average of 7 HF dogs, 6 weeks after initiating therapy, 0.5 mg/kg/day): 667 pg/mL
- NT-pro BNP, 12 Wk, AVG ([2]; plasma, average of 7 HF dogs, 12 weeks after initiating therapy, 0.5 mg/kg/day): 354 pg/mL
- NT-pro BNP, 6Wk [2, 7]: 695 pg/ml (2×) and 559 pg/ml and 796 pg/ml and 680 pg/ml and 593 pg/ml and 654 pg/ml
- NT-pro BNP, 12 Wk [2, 8]: 299 pg/mL and 422 pg/mL and 234 pg/mL and 294 pg/mL and 417 pg/mL and 393 pg/mL and 423 pg/mL
- NT-pro BNP, BL, AVG ([2]; plasma, peptide group average (7 dogs), baseline before heart failure (before treatment)): 278 pg/mL
- NT-pro BNP, Pre, AVG ([2]; plasma, peptide group average (7 dogs), heart failure prior to initiating therapy): 1128 pg/mL
- NT-pro BNP, BL ([2]; plasma, peptide group, individual dogs, baseline before heart failure (before treatment)): 257 pg/mL and 203 pg/mL and 271 pg/mL and 320 pg/mL and 289 pg/mL and 265 pg/mL and 346 pg/mL
- NT-pro BNP, Pre [2, 10]: 1512 pg/mL and 1223 pg/mL and 1078 pg/mL and 1034 pg/mL and 1018 pg/mL and 1090 pg/mL and 941 pg/mL
- activation of mK ATP [3]: 2775±254 relative fluorescence units (R
- plasma TNF-alpha levels (FIG. 4), in words ([4]; treatment for 12 weeks): near normal levels
- plasma TNF-alpha levels (FIG. 4), in words ([4]; treatment for six weeks): reduced TNF-alpha levels
- TNF-α concentration, 6 Wk ([4]; plasma, individual HF dogs, 6 weeks after initiating therapy): 3.27 pg/mL and 3.08 pg/mL and 3.50 pg/mL and 3.16 pg/mL and 3.72 pg/mL and 3.12 pg/mL and 2.60 pg/mL
- TNF-α concentration, 12 Wk ([4]; plasma, individual HF dogs, 12 weeks after initiating therapy): 1.14 pg/mL and 1.42 pg/mL and 1.18 pg/mL and 1.75 pg/mL and 1.69 pg/mL and 1.53 pg/mL and 1.35 pg/mL
- TNF-α concentration, 6 Wk, Mean ([4]; plasma, mean of 7 HF dogs, 6 weeks after initiating therapy): 3.21 pg/mL
- TNF-α concentration, 12 Wk, Mean ([4]; plasma, mean of 7 HF dogs, 12 weeks after initiating therapy): 1.44 pg/mL
- TNF-α concentration, BL, Mean ([4]; plasma, peptide group mean (7 dogs), baseline (before HF and treatment)): 1.24 pg/mL
- TNF-α concentration, PRE, Mean ([4]; plasma, peptide group mean (7 dogs), heart failure prior to initiating therapy): 4.36 pg/mL
- TNF-α concentration, BL [4, 9]: 0.90 pg/mL and 0.97 pg/mL and 1.02 pg/mL and 1.85 pg/mL and 1.30 pg/mL and 1.11 pg/mL and 1.54 pg/mL
- TNF-α concentration, PRE [4, 10]: 4.26 pg/ml (2×) and 3.96 pg/ml and 4.69 pg/ml and 4.59 pg/ml and 4.31 pg/ml and 4.42 pg/ml
- ALCAT1 mRNA: reduced increase, fold [5]: 1.54 fold
- MLCL AT1 mRNA: reduced increase, fold [6]: 1.18 fold
